Values after ≈ are worked out from the molar mass of the structure shown. Structures can show the parent of a compound that is named as a salt. Where two headings read alike, the source gives them in different places.
How the values were obtained:
L1210 cells = experiment: L1210 in vitro cell growth inhibition; assay type: cell-based; settings: Mus musculus, 72 h; L1210 murine leukemia cells, three days incubation, 50% inhibition of growth; read-out: L1210 in vitro ID50
Procedure: Another test protocol uses L1210 cells, a murine leukemia cell line, grown in RPMI 1640 supplemented with 5% fetal bovine serum and gentamicin ([…]). Drug dilutions are prepared in the appropriate solvent and 20 µl of each dilution are added to 24-well Linbro tissue culture plates, followed by the addition of 2.0 ml of cell suspension containing 3 x 10^4 cells per ml. Solvent and medium controls are included in each test. After incubation at 37°C for three days in 5% CO2, the contents of each well are removed and the cells counted in a ZBI Counter counter. Percent growth are calculated relative to the controls and the levels of drug activity are expressed as ID50 in moles per liter.

[1] = tested on: lymphocytic leukemia P388; experiment: in vivo lymphocytic leukemia P388 test; settings: Mus musculus, P388, ip, 120 h, mice, survival time treated/control, read-out: P388 in vivo T/C×100; for response vs control in vivo at 25 mg/kg: Dose 25 mg/kg intraperitoneally once daily for five days; for response vs control in vivo at 50 mg/kg: Dose 50 mg/kg intraperitoneally once daily for five days; for response vs control in vivo at 100 mg/kg: Dose 100 mg/kg intraperitoneally once daily for five days; for response vs control in vivo at 12.5 mg/kg: Dose 12.5 mg/kg intraperitoneally once daily for five days; for response vs control in vivo at 6.25 mg/kg: Dose 6.25 mg/kg intraperitoneally once daily for five days
Procedure: Another test protocol is the in vivo lymphocytic leukemia P388 test. The animals used are either male or female CD2F, mice. There are six or seven animals per test group. The tumor transplant is by intraperitoneal injection of dilute ascitic fluid containing cells of lymphocytic leukemia P388. The test compounds are administered intraperitoneally once daily for five consecutive days at various doses following tumor inoculation. The animals are weighed and survivors are recorded on a regular basis for 30 days. A compound is designated "toxic" if, at a given dose, all animals died prior to four days after the first injection of drug. A ratio of survival time for treated (T)/control (C) animals is calculated. A criterion for efficacy is a ratio T/C times 100 greater than or equal to 125. See Cancer Chemotherapy Reports, Part 3, 3, 1 (1972) for a comprehensive discussion of the protocol.

[2] = tested on: Corynebacterium Sp. ATCC 21698; experiment: in vitro antibacterial (ABMF) microdilution susceptibility test; assay type: cell-based; settings: ATCC21698, Mueller-Hinton broth microdilution, 37°C, 16-24 hours, read-out: ABMF Minimal Inhibitory Concentration (µ/ml) Coryn. sp.
Excerpt: (§1) Still another test protocol is the in vitro antibacterial (ABMF) test which is a recognized standard microdilution susceptibility procedure in Mueller-Hinton broth against Gram-positive and Gram-negative bacterial test organisms. The procedure is a modification of a state-of-the-art procedure reported in Manual of Clinical Microbiology, Lennette, E. H., ed., by Barry, A. L. and C. Thornsberry at pages 463-474 and by Gavan, T. L. and A. L. Barry at pages 459―462, American Society for Microbiology, Washington, 1980.
(§2) In the test, a given bacterial culture is used to inoculate individual test wells of microdilution trays containing growth medium and test compound, the latter in a microdilution series: 1000, 333.111, 37,12, 4, 1.4, and 0.46 micrograms per milliliter. […] For convenience, values are reported for Escherichia coli, Corynebacterium Sp. ATCC 21698, Salmonella typhimurium, Streptococcus pneumoniae, and Rhodotorula aurantiaca.

Escherichia coli = experiment: as above; assay type: cell-based; settings: read-out: ABMF Minimal Inhibitory Concentration (µ/ml) E. coli
Excerpt: as §1, §2

Salmonella typhimurium = experiment: as above; assay type: cell-based; settings: Salmonella enterica, Mueller-Hinton broth microdilution, 37°C, 16-24 hours, read-out: ABMF Minimal Inhibitory Concentration (µ/ml) S. typh.
Excerpt: as §1, §2

Rhodotorula aurantiaca = experiment: as above; assay type: cell-based; settings: Buckleyzyma aurantiaca, read-out: ABMF Minimal Inhibitory Concentration (µ/ml) R. aurant
Excerpt: as §1, §2

Streptococcus pneumoniae = experiment: as above; assay type: cell-based; settings: Mueller-Hinton broth microdilution, 37°C, 16-24 hours, read-out: ABMF Minimal Inhibitory Concentration (µ/ml) S. pneum.
Excerpt: as §1, §2

[3] = Mueller-Hinton broth microdilution, 37°C, 16-24 hours

CCN(CC)CCn1nc2c3c(c([N+](=O)[O-])ccc31)Oc1ccc(OC)cc1-2 [Example 5, N,N-Diethyl-9-methoxy-5-nitro-2H-[1]benzopyrano-[4,3,2-cd]indazole-2-ethanamine, methanesulfonate (1: 1)]
IC50 (L1210 cells): 0.92 µM | response vs control in vivo at 25 mg/kg [1]: 126% | response vs control in vivo at 50 mg/kg [1]: 148% | response vs control in vivo at 100 mg/kg [1]: 192% | MIC [2]: < 0.46 µg/mL | MIC (Escherichia coli; [3]): < 0.46 µg/mL | MIC (Salmonella typhimurium): 111 µg/mL | MIC (Rhodotorula aurantiaca): 111 µg/mL | MIC (Streptococcus pneumoniae): < 0.46 µg/mL

CCN(CC)CCn1nc2c3c(c(NCCN)ccc31)Oc1ccc(OC)cc1-2 [Example 6, 1-[2-[2-(Diethylamino)ethyl]-9-methoxy-2H-[1]benzopyrano-[4,3,2-cd]ndazole-5-yl]-1,2-ethanediamine, trihydrobromide]
IC50 (L1210 cells): 1.1 µM | response vs control in vivo at 12.5 mg/kg [1]: 154% | response vs control in vivo at 25 mg/kg [1]: 145% | MIC [2]: 4.1 µg/mL | MIC (Escherichia coli): 111 µg/mL | MIC (Salmonella typhimurium): 111 µg/mL | MIC (Rhodotorula aurantiaca; [3]): 333 µg/mL | MIC (Streptococcus pneumoniae): 12.3 µg/mL

COc1ccc2c(c1)-c1nn(CCCN(C)C)c3ccc([N+](=O)[O-])c(c13)O2 [Example 7, 9-Methoxy-N,N-dimethyl-5-nitro-2H-[1]benzopyrano[4,3,2-cd]indazole-2-propanamine, methanesulfonate (1:1.17)]
IC50 (L1210 cells): 0.58 µM | response vs control in vivo at 50 mg/kg [1]: 134% | response vs control in vivo at 100 mg/kg [1]: 159% | response vs control in vivo at 200 mg/kg ([1]; Dose 200 mg/kg intraperitoneally once daily for five days): 218% | MIC [2]: < 0.46 µg/mL | MIC (Escherichia coli; [3]): 4.1 µg/mL | MIC (Salmonella typhimurium): 111 µg/mL | MIC (Rhodotorula aurantiaca; [3]): 1000 µg/mL | MIC (Streptococcus pneumoniae): < 0.46 µg/mL

COc1ccc2c(c1)-c1nn(CCN3CCCC3)c3ccc([N+](=O)[O-])c(c13)O2.Cl [Example 8, 9-Methoxy-5-nitro-2-[2-(1-pyrrolidinyl)ethyl]-2H-[1]benzopyrano[4,3,2-cd]indazole, monohydrochloride]
IC50 (L1210 cells): 2 µM | MIC [2]: < 0.46 µg/mL | MIC (Escherichia coli; [3]): > 1000 µg/mL | MIC (Salmonella typhimurium): 37 µg/mL | MIC (Rhodotorula aurantiaca; [3]): 111 µg/mL | MIC (Streptococcus pneumoniae): < 0.46 µg/mL

COc1ccc2c(c1)-c1nn(CCN3CCCC3)c3ccc(N)c(c13)O2 [Example 9, 9-Methoxy-2-[2-(1-pyrrolidinyl)ethyl]-2H-[1]benzopyrano[4,3,2-cd]indazole-2-amine, monohydrochloride]
IC50 (L1210 cells): 0.36 µM | MIC [2]: 4.1 µg/mL | MIC (Escherichia coli; [3]): 12.3 µg/mL | MIC (Salmonella typhimurium): 111 µg/mL | MIC (Rhodotorula aurantiaca; [3]): 333 µg/mL | MIC (Streptococcus pneumoniae): 4.1 µg/mL

O=[N+]([O-])c1ccc2c3c(nn2CCN2CCCC2)-c2cc(O)ccc2Oc13 [Example 10, 5-Nitro-2[2-(1-pyrrolidinyl)ethyl]-2H-[1]benzopyrano[4,3,2-cd]indazole-9-ol, methanesulfonate]
IC50 (L1210 cells): 0.0035 µM | MIC [2]: < 0.46 µg/mL | MIC (Escherichia coli; [3]): > 1000 µg/mL | MIC (Salmonella typhimurium): 1.4 µg/mL | MIC (Rhodotorula aurantiaca; [3]): 1000 µg/mL | MIC (Streptococcus pneumoniae): < 0.46 µg/mL

CN(C)CCCn1nc2c3c(c([N+](=O)[O-])ccc31)Oc1ccc(O)cc1-2.CS(=O)(=O)O [Example 11, 9-Hydroxy-N,N-dimethyl-5-nitro-2H-[1]benzopyrano[4,3,2-cd]indazole-2-propanamine, methanesulfonate (1:1)]
IC50 (L1210 cells): 0.015 µM | response vs control in vivo at 6.25 mg/kg [1]: 150% | response vs control in vivo at 12.5 mg/kg [1]: 200% | response vs control in vivo at 25 mg/kg [1]: 226% | MIC [2]: < 0.46 µg/mL | MIC (Escherichia coli; [3]): < 0.46 µg/mL | MIC (Salmonella typhimurium): 12.3 µg/mL | MIC (Rhodotorula aurantiaca; [3]): 1000 µg/mL | MIC (Streptococcus pneumoniae): < 0.46 µg/mL

CCN(CC)CCn1nc2c3c(c(N)ccc31)Oc1ccc(O)cc1-2.Cl.Cl [Example 12, 5-Amino-N,N-diethyl-9-hydroxy-2H-[1]benzopyrano[4,3,2-cd]indazole-2-ethanamine, dihydrochloride]
IC50 (L1210 cells): 0.071 µM | response vs control in vivo at 6.25 mg/kg [1]: 167% | response vs control in vivo at 12.5 mg/kg [1]: 201% | response vs control in vivo at 25 mg/kg [1]: 192% | MIC [2]: 12.3 µg/mL | MIC (Escherichia coli): 111 µg/mL | MIC (Salmonella typhimurium): 111 µg/mL | MIC (Rhodotorula aurantiaca; [3]): > 1000 µg/mL | MIC (Streptococcus pneumoniae): 12.3 µg/mL

CCN(CC)CCn1nc2c3c(c(NC(=O)CNCCO)ccc31)Oc1ccc(O)cc1-2.Cl [Example 13, N-[2-[2-(Diethylamino)ethyl]-9-hydroxy-2H-[1]benzopyrano[4,3,2-cd]indazole-5-yl]-2-[(2-hydroxyethyl)-amino]acetamide, hydrochloride]
IC50 (L1210 cells): 0.0057 µM | response vs control in vivo at 25 mg/kg [1]: 198% | response vs control in vivo at 50 mg/kg [1]: 227% | response vs control in vivo at 100 mg/kg [1]: 272% | MIC [2]: 333 µg/mL | MIC (Escherichia coli; [3]): 111 µg/mL | MIC (Salmonella typhimurium): > 1000 µg/mL | MIC (Rhodotorula aurantiaca; [3]): > 1000 µg/mL | MIC (Streptococcus pneumoniae): 333 µg/mL

CCN(CC)CCn1nc2c3c(c(NCCNCCO)ccc31)Oc1ccc(O)cc1-2 [Example 14]
IC50 (L1210 cells): 0.048 µM | response vs control in vivo at 6.25 mg/kg [1]: 236% | response vs control in vivo at 12.5 mg/kg [1]: 272% | MIC [2]: 33 µg/mL (≈ 77.5 µM) | MIC (Escherichia coli; [3]): 11 µg/mL (≈ 25.8 µM) | MIC (Salmonella typhimurium): > 33 µg/mL | MIC (Rhodotorula aurantiaca; [3]): > 33 µg/mL | MIC (Streptococcus pneumoniae): 11 µg/mL (≈ 25.8 µM)

O=[N+]([O-])c1ccc2c3c(nn2CCNCCO)-c2cc(O)ccc2Oc13 [Example 15, 2-[2-[(2-Hydroxyethyl)amino]ethyl]-5-nitro-2H-[1]benzopyrano[4,3,2-cd]indazol-9-01, hydrochloride]
IC50 (L1210 cells): 0.015 µM | response vs control in vivo at 12.5 mg/kg [1]: 190% | response vs control in vivo at 25 mg/kg [1]: 218% | response vs control in vivo at 50 mg/kg [1]: 230% | MIC [2]: 1.4 µg/mL | MIC (Escherichia coli; [3]): > 0.46 µg/mL | MIC (Salmonella typhimurium): 12.3 µg/mL | MIC (Rhodotorula aurantiaca; [3]): 1000 µg/mL | MIC (Streptococcus pneumoniae): 1.4 µg/mL

Cl.Nc1ccc2c3c(nn2CCNCCO)-c2cc(O)ccc2Oc13 [Example 16, 5-Amino-2-[2-[(2-hydroxyethyl)amino]ethyl]-2H-[1]benzopyrano[4,3,2-cd]indazol-9-ol, hydrochloride]
IC50 (L1210 cells): 0.12 µM | response vs control in vivo at 6.25 mg/kg [1]: 165% | response vs control in vivo at 12.5 mg/kg [1]: 200% | response vs control in vivo at 25 mg/kg [1]: 260% | MIC [2]: 12.3 µg/mL | MIC (Escherichia coli; [3]): 4.1 µg/mL | MIC (Salmonella typhimurium): 37 µg/mL | MIC (Rhodotorula aurantiaca; [3]): > 1000 µg/mL | MIC (Streptococcus pneumoniae): 37 µg/mL

CCN(CC)CCn1nc2c3c(c([N+](=O)[O-])ccc31)Oc1cc(OC)ccc1-2 [Example 19, 5-Nitro-2-[2-(diethylamino)ethyl]-8-methoxy-2H [1]benzopyrano[4,3,2-cd]indazol, hydrochloride]
IC50 (L1210 cells): 2.2 µM | MIC [2]: < 0.46 µg/mL | MIC (Escherichia coli; [3]): < 0.46 µg/mL | MIC (Salmonella typhimurium): 37 µg/mL | MIC (Rhodotorula aurantiaca; [3]): 333 µg/mL | MIC (Streptococcus pneumoniae): < 0.46 µg/mL

CCN(CC)CCn1nc2c3c(c([N+](=O)[O-])ccc31)Oc1cc(O)ccc1-2 [Example 20, 5-Nitro-2-[2-(diethylamino)ethyl]-2H-[1]benzopyrano[4,3,2-cd]indazol-8-0l, hydrochloride]
IC50 (L1210 cells): 0.87 µM | MIC [2]: < 0.46 µg/mL | MIC (Escherichia coli; [3]): 1.4 µg/mL | MIC (Salmonella typhimurium): 12.3 µg/mL | MIC (Rhodotorula aurantiaca; [3]): > 1000 µg/mL | MIC (Streptococcus pneumoniae): < 0.46 µg/mL

From patent EP0172632B1, “Benzopyrano[4,3,2-cd]indazole compounds, processes for their production and pharmaceutical compositions comprising the compounds” (WARNER-LAMBERT COMPANY, priority 1984, dated 1986)
